Data as given in US9616075B2, “Method of treating and preventing brain impairment using Na+-K+-2Cl-cotransporter isoform 1 inhibitors” (University of Rochester, priority 2012, dated 2017).
Read-outs that look alike come from different tables or passages of the source.

Key:
[1] = tested on: cortical inhibitory networks; experiment: Paired-pulse whisker stimulation (paired-pulse ratio, cortical inhibitory function) in awake mice; assay type: in vivo, mouse; settings: for Paired-pulse ratio (PPR): awake mice
Method: (§1) Recordings were analyzed offline using pClamp 10.2.
Next, it was investigated how cortical ammonia toxicity leads to neurological dysfunction and seizures. […] Neurobiol. […] The whisker stimulation paradigm elicits two successive field excitatory post-synaptic potentials (fEPSP), where the second fEPSP has lower amplitude due to activation of cortical inhibitory networks (quantified by a paired-pulse ratio (PPR)<1).

astrocytes [2] = settings: n = 52 cells, mean±SEM; for Astrocyte calcium transient Freq.: awake Otc^spf-ash mice, 100 μm below pial surface
From the text: Body temperature was maintained with a heating pad.
Two-Photon Laser Scanning Microscopy (2PLSM)—A Mai Tai laser (SpectraPhysics) attached to a confocal scanning system (Fluoview 300, Olympus) and an upright microscope (IX51W) was used. Briefly, volume changes and calcium activity were imaged in cortex 100 μm below the pial surface, as described previously, using a 60× (1.1 NA) and a 20× (0.95 NA) lens, respectively. For in vivo volumetry xyzt image series were collected (z-step 1.5 μm, every 5 minutes) with acquisition time<20 seconds and laser power<40 mW. For in vivo calcium imaging, dual channel (rhod-2 and eGFP) frames were collected at 0.2 or 2 Hz. A low sampling rate and <20 mW laser were used to avoid photo damage. […] Therefore, each animal was tested for optimal loading by performing whisker stimulation, to verify a physiological calcium response. Wang et al., “Astrocytic Ca^2+ Signalling Evoked by Sensory Stimulation In Vivo,” Nat. Neurosci. 9:816-823 (2006), which is hereby incorporated by reference in its entirety. A calcium transient was defined as an event where the relative ratio between the rhod-2 and eGFP signal intensities (ΔF/F0) was >2 standard deviations […] from baseline. Beginning and end were defined as ΔF/F0>0.5 π and <0.5 π respectively. Amplitude was taken as the peak ΔF/F0 in this interval. For in situ volumentric imaging acute cortical slices were loaded with texas red hydrazide (1.5 μM, a fixable sulforhodamine 101 derivative) in aCSF for 50 minutes. Volume and calcium recordings were analyzed using previously described custom-made software (MatLab Inc.).
Data in Table 2 is from analysis of 2PLSM xyt series, where calcium indicator rhod-2 was used to detect astrocyte calcium transients 100 μm below the pial surface. Data are shown as mean±SEM.

[3] = 1H-NMR brain amino acid concentrations; assay type: in vivo, mouse; settings: 30 minutes after administration, mean±SEM
Method: ^1H-NMR Spectroscopy—Mice were anesthetized using 1.5% isoflurane and decapitated. Forebrains (whole brain minus cerebellum/brainstem) were quickly extracted, frozen in liquid nitrogen, and homogenized in 7.5 mL 12% PCA at 0° C. using a micro-sonicator. The homogenate was centrifuged at 25,000 G for 15 minutes, and the supernatants were neutralized to pH 7.0 with KOH over an ice bath. A further 15 minute centrifugation (25,000 G) separated the resultant KClO4, and the supernatant was lyophilized before being reconstituted with 0.65 ml D2O. ^1H-NMR spectra were acquired using a 600 mHz Varian Unity NOVA spectrometer equipped with a triple-axis gradient HCN probe (standard room temperature). Signals were acquired following a 90° pulse with a spectral width of 7200 Hz and 32K data points. The time between pulses was 15 seconds and 64 signals were averaged for each spectrum. The sample temperature was 25° C. Integrals of the relevant peaks were converted to μmol/gram wet-weight and normalized NAA (methyl) to increase inter-sample consistency.

pyramidal neurons = experiment: Whole-cell voltage clamp with ramp voltage and GABA application in acute cortical slices (EGABA); assay type: cell-based, mouse
From the text: (§3) Electrophysiological Recordings—In vivo recordings were obtained from layer II somatosensory cortex. In situ recordings were obtained from layer II in coronal cortical slices prepared from P21-30 mice. ISMs of K^+ and NH4^+ were pulled from double-barreled pipette glass (PB150-6, WPI) with a tip of 1-3 μm. The pipettes were silanized (coated) with dimethylsilane I (Fluka, Sigma) and filled with either K^+ ionophore I cocktail B (Fluka, selectivity coefficient −1.8 log(K^+/NH4^+)) or NH4+ ionophore I cocktail B (Fluka, −0.9 log(NH4^+/K^+)). […] Ion-sensitive microelectrode (ISM) signals were amplified (FD223a by WPI), externally filtered and digitized as above, and reference field potential traces were subtracted. […] Recordings were analyzed offline using pClamp 10.2.
(§4) In Situ Electrophysiology—Coronal cortical slices were prepared from P21-30 mice, as described previously. […] All experiments were performed at 32-35° C. […] Whole-cell patch-clamp recordings were done using electrodes with 3-5 M106 resistance, and an intracellular solution containing 135 mM K-methylsulfate, 10 mM KCl, 10 mM hepes, 5 mM NaCl, 2.5 mM Mg-ATP, 0.3 mM Na-GTP (pH 7.3), containing Alexa Fluor® 350 (Invitrogen). Signals were low-pass filtered at 2 kHz and digitized at 10 kHz using Axopatch MultiClamp 700A and Digidata 1320A (Axon Instruments).

NKCC1 [4] = target: NKCC1 (Mus musculus, UniProt P55012); settings: wild-type Slc12a2^+/+
Chain of NKCC1 (Mus musculus, UniProt P55012) (P55012 whole entry): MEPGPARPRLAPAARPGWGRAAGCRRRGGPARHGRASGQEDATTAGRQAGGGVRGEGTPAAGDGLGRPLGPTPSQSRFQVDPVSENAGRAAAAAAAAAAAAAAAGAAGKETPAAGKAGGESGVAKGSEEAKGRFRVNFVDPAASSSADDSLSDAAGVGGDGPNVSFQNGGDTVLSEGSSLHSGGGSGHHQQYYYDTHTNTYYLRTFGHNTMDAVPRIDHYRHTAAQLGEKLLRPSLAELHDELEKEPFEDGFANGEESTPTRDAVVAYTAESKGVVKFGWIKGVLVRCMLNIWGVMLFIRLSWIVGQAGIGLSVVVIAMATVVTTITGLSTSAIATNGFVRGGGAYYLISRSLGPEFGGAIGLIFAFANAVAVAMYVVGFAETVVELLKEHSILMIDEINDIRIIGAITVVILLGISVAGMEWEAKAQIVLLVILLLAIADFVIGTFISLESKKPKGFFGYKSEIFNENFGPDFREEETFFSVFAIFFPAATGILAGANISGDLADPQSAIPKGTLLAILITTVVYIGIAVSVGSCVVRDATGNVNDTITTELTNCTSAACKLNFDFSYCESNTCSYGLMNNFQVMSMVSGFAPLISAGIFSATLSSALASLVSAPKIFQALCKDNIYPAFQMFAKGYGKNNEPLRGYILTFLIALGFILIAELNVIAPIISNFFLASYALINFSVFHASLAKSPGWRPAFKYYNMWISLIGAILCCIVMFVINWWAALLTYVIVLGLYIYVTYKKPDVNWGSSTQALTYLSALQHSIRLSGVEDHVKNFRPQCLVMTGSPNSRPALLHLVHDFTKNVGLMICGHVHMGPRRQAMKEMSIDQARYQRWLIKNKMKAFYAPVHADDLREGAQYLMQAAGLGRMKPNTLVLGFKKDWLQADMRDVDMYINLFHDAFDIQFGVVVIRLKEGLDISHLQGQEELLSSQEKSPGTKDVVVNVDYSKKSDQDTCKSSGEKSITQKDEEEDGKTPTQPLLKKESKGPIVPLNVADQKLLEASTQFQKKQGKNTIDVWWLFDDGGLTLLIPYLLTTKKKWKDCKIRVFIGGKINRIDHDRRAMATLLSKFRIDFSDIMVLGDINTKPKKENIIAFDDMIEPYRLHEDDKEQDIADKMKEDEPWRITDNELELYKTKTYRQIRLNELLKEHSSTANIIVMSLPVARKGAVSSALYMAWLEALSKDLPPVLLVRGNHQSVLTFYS
Method: as §1
(§2) Because EGABA is heavily dependent on chloride transporters, the diuretic bumetanide was next tested, a highly specific NKCC1 inhibitor used in clinical practice to treat heart failure. Hannaert et al., “Rat NKCC2/NKCC1 Cotransporter Selectivity For Loop Diuretic Drugs,” Naunyn Schmiedebergs Arch. Pharmacol. 365:193-199 (2002); Dzhala et al., “NKCC1 Transporter Facilitates Seizures in the Developing Brain,” Nat. […] To ensure the molecular specificity of bumetanide, gramicidin-perforated patch recordings were also performed in conditional NKCC1 knock-out (Slc12a2^−/−) and wild-type littermates (Slc12a2′^+/+).

NKCC1 [5] = settings: NKCC1 knock-out Slc12a2^−/−
Method: as §1, §2

Otc^spf-ash mice [6] = experiment: Automated video analysis of spontaneous mouse movement; assay type: in vivo; settings: Otc^spf-ash mice after systemic NH4Cl load 7.5 mmol kg^−1; bumetanide 30 mg kg^−1 i.p.
Method: Otc^spf-ash mice were crossed with Glt-1-eGFP mice for imaging experiments. C57BL/6J mouse and Wistar rat pups were obtained from Jackson Laboratories. To analyze cognitive abilities in OTC mice, two commercial conditioning chambers (H10-11M-TC, Coulbourn Instruments) were adapted for contextual fear conditioning. Over the course of 4 days, mice were trained via a tone/shock protocol and trained to fear contextual and auditory cues. […] Automated movement analysis was performed using AnyMazeTM software analysis of CCD-camera recordings in a standard mouse cage.

Otc^spf-ash mice [7] = experiment: Sensory-motor phenotype score; assay type: in vivo, mouse; settings: Otc^spf-ash mice after systemic NH4Cl load 7.5 mmol kg^−1; bumetanide 30 mg kg^−1 i.p.
Method: Mouse movement and seizure activity were omitted from this score, because it was desired that these manifestations be independently and more quantitatively represented. The score thus consisted of four elements: hyperacusis (0-2), imbalance (0-3), ataxia/tremor (0-3) and level of consciousness (0-3). A maximum score of 11 represents deep coma (no corneal reflex) whilst 0 represents normal wakefulness. Each animal was scored after the first 5 minutes and then every 15 minutes as they progressed through the stereotypical stages of ammonia neurotoxicity. […] Ataxia/tremor was scored using a gait test, where the mouse was encouraged to walk for a short distance. […] Consciousness was scored as either 0 for awake, 1 loss of scatter reflex, 2 loss of righting reflex (LORR), 3 loss of corneal reflex.

awake mice = experiment: Myoclonic event (ME) frequency on EEG in awake mice; assay type: in vivo, mouse
From the text: Electrophysiological Recordings—In vivo recordings were obtained from layer II somatosensory cortex. In situ recordings were obtained from layer II in coronal cortical slices prepared from P21-30 mice. ISMs of K^+ and NH4^+ were pulled from double-barreled pipette glass (PB150-6, WPI) with a tip of 1-3 μm. The pipettes were silanized (coated) with dimethylsilane I (Fluka, Sigma) and filled with either K^+ ionophore I cocktail B (Fluka, selectivity coefficient −1.8 log(K^+/NH4^+)) or NH4+ ionophore I cocktail B (Fluka, −0.9 log(NH4^+/K^+)). […] Electroencephalogram (EEG) signals were externally filtered at 6 Hz (Filter Butterworth Model by Encore, Axopatch 200B by Axon Instruments), band pass filtered at 1-100 Hz and digitized (Digidata 1440A by Axon Instruments). Ion-sensitive microelectrode (ISM) signals were amplified (FD223a by WPI), externally filtered and digitized as above, and reference field potential traces were subtracted. In selected experiments, wireless electromyogram (EMG) and electroencephalogram (EEG) electrodes were implanted (DSI Physiotel®), and an extracellular microelectrode was placed in the thalamus (ventrobasal complex). Recordings were analyzed offline using pClamp 10.2. Myoclonic events (ME) were defined on the EEG as single or multiple 3-9 Hz polyspike and wave discharges (SWD) of 0.2-2 second duration associated with myoclonic jerks determined by video recording, EMG or direct observation.

astrocytes [8] = settings: awake Otc^spf-ash mice, ammonia load
Method: Two-Photon Laser Scanning Microscopy (2PLSM)—A Mai Tai laser (SpectraPhysics) attached to a confocal scanning system (Fluoview 300, Olympus) and an upright microscope (IX51W) was used. Briefly, volume changes and calcium activity were imaged in cortex 100 μm below the pial surface, as described previously, using a 60× (1.1 NA) and a 20× (0.95 NA) lens, respectively. For in vivo volumetry xyzt image series were collected (z-step 1.5 μm, every 5 minutes) with acquisition time<20 seconds and laser power<40 mW. For in vivo calcium imaging, dual channel (rhod-2 and eGFP) frames were collected at 0.2 or 2 Hz. A low sampling rate and <20 mW laser were used to avoid photo damage. […] Therefore, each animal was tested for optimal loading by performing whisker stimulation, to verify a physiological calcium response. Wang et al., “Astrocytic Ca^2+ Signalling Evoked by Sensory Stimulation In Vivo,” Nat. Neurosci. 9:816-823 (2006), which is hereby incorporated by reference in its entirety. A calcium transient was defined as an event where the relative ratio between the rhod-2 and eGFP signal intensities (ΔF/F0) was >2 standard deviations […] from baseline. Beginning and end were defined as ΔF/F0>0.5 π and <0.5 π respectively. Amplitude was taken as the peak ΔF/F0 in this interval. […] Volume and calcium recordings were analyzed using previously described custom-made software (MatLab Inc.).

Na^+—K^+-ATPase (NKA) = tested on: Na^+—K^+-ATPase (NKA)
Method: Cell Culture Assays—Cultured neocortical astrocytes were prepared from P1-2 mouse and rat pups as previously described. Wang et al., “Astrocytes Modulate Neural Network Activity by Ca(2)(+)-Dependent Uptake of Extracellular K(+),” Science Signaling 5:ra26 (2012); Lin et al., “Gap-Junction-Mediated Propagation and Amplification of Cell Injury,” Nat. Neurosci. 1:494-500 (1998), which are hereby incorporated by reference in their entirety. For ^86Rb^+ experiments the cultures were incubated for 10 minutes±ouabain (1 mM). The potassium analogue ^86Rb^+ was then added to each well plate for 15 minutes (1 μCi, Perkin Elmer). The reaction was stopped by placing the cells on ice and washed with ice-cold aCSF. The cells were lysed and ^86Rb^+ uptake quantified by liquid scintillation counting (Beckman Coulter). For Na^+—K^+-ATPase activity, astrocyte cultures were utilized as previously described, and enzyme activity was quantified using the malachite green reaction (Sigma) and analyzed using spectrophotometry. Anupama et al. “Comparison of Na—K ATPase Activity in Rat Brain Synaptosome Under Various Conditions,” Neurochem. Int. 33:283-286 (1998), which is hereby incorporated by reference in its entirety.

[9] = Otc^spf-ash mice after 7.5 mmol kg^−1 i.p. ammonia load (baseline 0.32±0.07)
Method: Biochemical and Hemodynamic Analysis—Plasma ammonia analysis was performed on blood samples collected using 50 μL heparinized tubes from the femoral artery. A L-glutamate dehydrogenase based kit (Sigma) was used for the quantification of ammonia in plasma.

cortical slices = settings: 7 mM ammonia in perfusate
From the text: as §3, §4

Otc^spf-ash mice [10] = experiment: NH4+ and K+ ion-sensitive microelectrode (ISM) recordings from cortex of awake mice; settings: mean±SEM
Method: Body temperature was maintained with a heating pad. For systemic drug treatment, a polyethylene intraperitoneal (i.p.) catheter was surgically implanted to deliver drugs accurately and with minimal manipulation. For cortical drug application artificial cerebrospinal fluid (aCSF) was perfused across the cortex of awake mice at a rate of 2 mL/minute, into a custom-made well with ˜200 μL volume, through tubing with ˜100 μL volume, meaning the entire volume bathing the brain was exchanged approximately every 9 seconds.
Electrophysiological Recordings—In vivo recordings were obtained from layer II somatosensory cortex. […] ISMs of K^+ and NH4^+ were pulled from double-barreled pipette glass (PB150-6, WPI) with a tip of 1-3 μm. The pipettes were silanized (coated) with dimethylsilane I (Fluka, Sigma) and filled with either K^+ ionophore I cocktail B (Fluka, selectivity coefficient −1.8 log(K^+/NH4^+)) or NH4+ ionophore I cocktail B (Fluka, −0.9 log(NH4^+/K^+)). […] Ion-sensitive microelectrode (ISM) signals were amplified (FD223a by WPI), externally filtered and digitized as above, and reference field potential traces were subtracted.
Ion Sensitive Microelectrode (ISM) Fabrication—Ion Sensitive Microelectrodes (ISMs) of K^+ and NH4^+ were pulled from double-barreled pipette glass (PB150-6, WPI) with a tip of 1-3 μm. The pipettes were silanized (coated) with dimethylsilane I (Fluka, Sigma). […] The K^+ ionophore has a selectivity coefficient relative to NH4^+ of −1.8 log (K^+/NH4^+), and the NH4^+ ionophore has a selectivity coefficient relative to K^+ of −0.9 log (NH4^+/K^+). […] The reference barrels were used to record the DC potentials and were filled with 0.15 M NaCl. In selected experiments, single barrel electrodes were also used in combination with single reference electrodes. K^+ and NH4^+ ISM traces were subtracted for interference by calculating the mV response to the increase of the other ion in calibration solutions. All ISMs were calibrated before and after each experiment. […] Calibration data were fitted to the Nikolsky equation to determine electrode slope and interference.

Otc^spf-ash mice [11] = experiment: Survival after ammonia overdose (Cox regression); assay type: in vivo, mouse
Method: Where n≧10 for normally distributed data, the unpaired t test or ANOVA were used for independent samples, and paired t test for paired samples. Where n<10 non-parametric tests including Mann-Whitney U and Kruskall-Wallis were used for independent samples, and Wilcoxon signed ranks test for paired samples. Overdose survival was compared using Cox regression model (controlling for the confounding effect of mouse weight).
To test the validity of the present in situ model, awake animals were tested (FIG. 4A). […] To investigate whether this improvement of neuronal function translated into a clinically relevant improvement in disease phenotype, the phenotype measures outlined in FIGS. 1A-1I were employed.

[12] = during cortical KCl application (12.5 mM) ± bumetanide 5 μM
[13] = Otc^spf-ash mice, ammonia 7.5 mmol kg^−1 i.p.
[14] = after washout of cortical NH4Cl (± bumetanide)
[15] = during cortical NH4Cl application (10 mM) ± bumetanide 5 μM
[16] = cortical NH4Cl (10 mM) ± bumetanide
[17] = systemic NH4Cl (7.5 mmol kg^−1) ± bumetanide
[18] = cortical superfusion (NH4Cl 10 mM, BUM 5 μM)
[19] = intraperitoneal injection (NH4Cl 7.5 mmol kg^−1, BUM 30 mg kg^−1)

Structure (SMILES) | Paired-pulse ratio (PPR) [1, 12] | Brain GABA [3, 13] | Brain Glutamate [3, 13] | Brain Glutamine [3, 13] | Brain GABA ([3]; WT mice) | Brain Glutamate ([3]; WT mice) | Brain Glutamine ([3]; WT mice) | Paired-pulse ratio (PPR) after washout [1, 14] | Paired-pulse ratio (PPR) [1, 15] | Spontaneous mouse movement (Otc^spf-ash mice [6]) | Sensory-motor phenotype score (out of 11) (Otc^spf-ash mice [7]) | ME frequency (awake mice; [16]) | ME frequency (awake mice; [17]) | [NH4^+]o (Otc^spf-ash mice [10]; [18]) | [NH4^+]o (Otc^spf-ash mice [10]; [19]) | Δ[K^+]o (Otc^spf-ash mice [10]; [19]) | further results
[Cl-].[K+] [KCl] | 1.48±0.22 | – | – | – | – | – | – | – | – | – | – | – | – | – | – | – | Paired-pulse ratio (PPR) after washout ([1]; after washout of cortical KCl): 0.63±0.14
N [NH4Cl] | – | 2.46 ± 0.13 μmol g^−1 wet weight | 13.24 ± 0.33 μmol g^−1 wet weight | 9.25 ± 0.34 μmol g^−1 wet weight | 2.19 ± 0.12 μmol g^−1 wet weight | 12.49 ± 0.15 μmol g^−1 wet weight | 8.69 ± 0.33 μmol g^−1 wet weight | 0.61±0.15 | 1.56±0.24 | 0.42±0.22 m min^−1 | 9.00±0.46 | 1.02±0.07 ME min^−1 | 2.66±0.14 ME min^−1 | 5.82 ± 0.18 mM | 4.83 ± 0.52 mM | 1.93 ± 0.19 mM | Astrocyte calcium transient Freq. (astrocytes [2]): 9.03 ± 1.16 Hz cell^−1 × 10^−3; Astrocyte calcium transient Freq. (astrocytes [2]; listed as ammonia): 9.03±1.16 Hz cell^−1 × 10^−3; Astrocyte calcium Cell-cell correlation (astrocytes [2]; awake mice): 0.26 ± 0.08; Astrocyte calcium transient Amplitude (ΔF/F0) (astrocytes [2]; awake mice): 0.47 ± 0.32; Astrocyte calcium transient Duration (astrocytes [2]; awake mice): 21.51 ± 4.55 s; Astrocyte calcium Cell-cell correlation (astrocytes [2]; awake mice, listed as ammonia): 0.26±0.08; Depolarization of EGABA (pyramidal neurons; ammonia 7 mM in perfusate, pyramidal neurons, ramp voltage 0 to −120 mV): +12.33±3.66 mV; Depolarizing effect on EGABA (NKCC1 [4]): +11.14±1.22; Depolarizing effect on EGABA (NKCC1 [5]): +1.00±1.07; Astrocyte swelling (astrocytes [8]): no significant astrocyte swelling; Transient astrocyte shrinkage (astrocytes [8]): 5.04±0.85%; NKA activity with NH4Cl substituted for KCl (Na^+—K^+-ATPase (NKA); NH4Cl 15 mM, cell-free): able to maintain normal NKA activity; NKA-dependent (ouabain-sensitive) 86Rb^+ uptake (Na^+—K^+-ATPase (NKA); ammonia 0.5-10 mM, cultured astrocytes): dose-dependent reduction; Extracellular ammonia concentration in plasma [9]: 4.21 ± 0.59 mM; Increase in [K^+]o (cortical slices): 1.88 ± 0.13 mM; Increase in [NH4^+]o (cortical slices): 3.67 ± 0.53 mM; Δ[K^+]o (Otc^spf-ash mice [10]; intraperitoneal injection (NH4Cl 7.5 mmol kg^−1, BUM 30 mg kg^−1), listed as ammonia): 1.93 ± 0.19 mM
CCCCNc1cc(C(=O)O)cc(S(N)(=O)=O)c1Oc1ccccc1 [bumetanide] | 0.92±0.18 | 2.39 ± 0.13 μmol g^−1 wet weight | 14.27 ± 0.23 μmol g^−1 wet weight | 8.70 ± 1.54 μmol g^−1 wet weight | 2.55 ± 0.05 μmol g^−1 wet weight | 14.38 ± 0.22 μmol g^−1 wet weight | 4.52 ± 0.18 μmol g^−1 wet weight | 0.59±0.17 | 0.88±0.15 | 3.17±0.46 m min^−1 | 6.00±0.72 | 0.10±0.02 ME min^−1 | 0.32±0.02 ME min^−1 | 0.52 ± 0.11 mM | 0.42 ± 0.16 mM | 0.0073 ± 0.015 mM | Effect on ammonia-induced depolarization of EGABA (pyramidal neurons; bumetanide 5 μM pre-incubation): successfully prevented; Survival after ammonia overdose increased by a factor (Otc^spf-ash mice [11]; NH4Cl overdose 10 mmol kg^−1, Otc^spf-ash mice): 3.87; Hazard rate ratio (Otc^spf-ash mice [11]; NH4Cl overdose 10 mmol kg^−1, 95% confidence interval 0.08 to 0.87): 0.26
